Data published in patent US7776819B2, “Targeted drug delivery of pain and addiction therapies using opioid receptor-mediated internalization” (The Board of Trustees of the University of Illinois, priority 2005, dated 2010).
Where a SMILES comes first, the peptide text is derived from it.

Molecular target: T1, human mu opioid receptors (hMOR) (Homo sapiens, UniProt P35372)
T1 construct: expressed in transfected cells; host or cells: CHO cells, stably transfected (G418 selection); membrane preparation
T1 sequence (P35372 whole entry): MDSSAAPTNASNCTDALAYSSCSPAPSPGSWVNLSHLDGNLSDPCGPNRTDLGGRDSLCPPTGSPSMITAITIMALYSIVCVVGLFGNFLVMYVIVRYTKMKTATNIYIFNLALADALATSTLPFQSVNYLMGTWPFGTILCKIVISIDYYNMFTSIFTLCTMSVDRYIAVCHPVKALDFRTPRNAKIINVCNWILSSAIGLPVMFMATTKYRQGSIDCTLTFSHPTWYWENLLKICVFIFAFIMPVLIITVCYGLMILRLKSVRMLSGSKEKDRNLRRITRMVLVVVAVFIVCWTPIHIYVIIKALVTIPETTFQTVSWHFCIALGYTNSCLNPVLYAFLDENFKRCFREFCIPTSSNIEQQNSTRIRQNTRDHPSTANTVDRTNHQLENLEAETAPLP
Assay: [3H]DAMGO displacement receptor binding assay, CHO-hMOR membranes
Description: Receptor membranes were prepared from CHO cells transfected with opioid mu receptors. Binding was performed at 30° C. in 50 mM pH 7.4 tris HCl buffer for 1 h for CHO-MOR (100 μg protein/reaction, 1 nM 3H-DAMGO). Reactions were terminated by vacuum filtration through GF/B filters pretreated with 0.2% polyethylenimine. These were then washed twice with ice-cold PBS. Filter-bound radioactivity was determined by liquid scintillation counting. Nonspecific binding was determined in the presence of 20 μM DAMGO.
Briefly, membranes were prepared from CHO-hMOR cells by Polytron homogenization at setting 6 for 2 min on ice, followed by centrifugation at 20,000 g for 30 min at 4° C. Protein content was determined by the Coomassie protein assay method (Pierce Biotechnology, Rockford, Ill.) and bovine serum albumin as the standard. MOR receptor binding was conducted in triplicate with 1 nM [^3H]DAMGO in 50 mM Tris HCl buffer (pH 7.4) at 30° C. for 1 h (50 μg protein/reaction). Nonspecific binding was determined in the presence of 20 μM unlabelled DAMGO. Reactions were terminated by rapid vacuum filtration through GF/B filters presoaked with 0.2% polyethylenimine. Filter-bound radioactivity was determined by liquid scintillation counting (Beckman Coulter Inc., Fullerton, Calif.). Binding data representing the mean ±SD were analyzed using Prism program (GraphPad Software, San Diego, Calif.).

In the case of `C[C@@H](NC(=O)[C@@H](N)Cc1ccc(O)cc1)C(=O)N[C@@H](Cc1ccccc1)C(=O)NCC(=O)N[C@@H](Cc1ccc(O)cc1)C(=O)N1CCC[C@H]1C(=O)N[C@@H](CO)C(=O)N[C@@H](CS)C(=O)O` [c-p-dermorphin] (HELM PEPTIDE1{Y.[dA].F.G.Y.P.S.C}$$$$V2.0), the IC50 is reported as 25.3 nM.
